Test results: patent US20150119410A1, “BIOMARKERS OF RESPONSE TO NAE INHIBITORS” (MILLENNIUM PHARMACEUTICALS, INC., priority 2011, published 2015)

Columns and labels:
Type in all cases: cell-based
LS-174T = experiment: Cell line panel 1 viability screen; conditions: LS-174T (large_intestine)
Outline: (§1)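 Values are percentage of DMSO control, taken as the mean of triplicates after 72 h treatment with MLN4924 at 20 nM, 200 nM or 2 μM. Viability was measured as fluorescence of a cell-permeant nucleic acid dye.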

PANC-08-13 = experiment: Cell line panel 1 viability screen; conditions: PANC-08-13 (pancreas)
Outline: as §1

HT29 = experiment: Cell line panel 1 viability screen
Outline: as §1

p21 = experiment: Western blot of p21 in TP53 −/− HCT-116 cells; conditions: TP53 −/− HCT-116 cells treated with MLN4924
HCT-116 TP53 −/− cells = experiment: ATPlite viability assay, isogenic HCT-116 pair
Protocol: (§2) Paired isogenic HCT-116 cell lines that were either wild-type (+/+) or null (−/−) for p53 expression (HD PAR-018 and HD 104-001, respectively, Horizon Discovery Ltd) were seeded in separate 384-well plates and then treated the following day with a titration of MLN4924 triplicate, and incubated for 24, 36, 48 or 72 h, with seeding densities of 1600, 1200, 800, and 400 cells/well, respectively. Following compound incubation, viability of HCT-116 cells was assessed by ATPlite assay (Perkin Elmer) according to the manufacturer's instructions using the LEADseeker imaging system (GE Healthcare).

HCT-116 TP53 +/+ cells = experiment: ATPlite viability assay, isogenic HCT-116 pair; conditions: Homo sapiens, HCT-116 TP53 +/+ (wild-type), 72 h, read-out: LC50 (the source's name)
Protocol: as §2

## NS(=O)(=O)OC[C@@H]1C[C@@H](n2ccc3c(N[C@H]4CCc5ccccc54)ncnc32)C[C@@H]1O [MLN4924, ((1S,2S,4R)-4-{4-[(1S)-2,3-dihydro-1H-inden-1-ylamino]-7H-pyrrolo[2,3-d]pyrimidin-7-yl}-2-hydroxycyclopentyl)methyl sulphamate]
LS-174T; Homo sapiens, LS174T, 2 μM MLN4924, 72 hours, DMSO control about 1
  viability at 2 µM: 32.6%
LS-174T; KDM6A mutant
  Phenotype: sensitive (median POC values of less than the median value of all POC's recorded in the panel (<0.34) indicated sensitivity)
PANC-08-13; Homo sapiens, 2 μM MLN4924, 72 hours, DMSO control about 1
  viability at 2 µM: 77.7%
PANC-08-13; SMAD4 mutant
  Phenotype: resistant (values greater than the 3rd quartile of all POC's in the panel (>0.75) insensitivity or resistance)
HT29; HT-29 (large_intestine), SMAD4 mutant
  Phenotype: insensitive (values of 0.34 to 0.75 indicated borderline sensitivity)
HT29; Homo sapiens, HT29 / HT-29 (intestine), 2 μM MLN4924, 72 hours, DMSO control about 1
  viability at 2 µM: 43.8%
p21
  p21 level (Western blots): still up-regulated
HCT-116 TP53 −/− cells; Homo sapiens, HCT-116 TP53 −/− (null), 72 h, ATPlite, read-out: LC50 (the source's name)
  CC50: 74 ± 5 nM
HCT-116 TP53 −/− cells; TP53 −/− versus TP53 +/+ HCT-116, 24, 36, and 48 h
  cell death at the highest drug concentrations: less cell death
HCT-116 TP53 +/+ cells
  CC50: 21 ± 1 nM
